Drawing on ChEMBL document CHEMBL1649426 (J Med Chem, 2011), this text covers IC50, Ki and EC50 for 13 compounds.

SMILES strings stand for the structures.

Test [1] relates to Human immunodeficiency virus 1. The test is described as follows: Antiviral activity against HIV1 LAI infected in human MT2 cells assessed as inhibition of virus-induced cytopathic effect by MTT assay. Conditions: Human immunodeficiency virus 1, LAI. The class given is functional, organism-based.
A further test addresses Protease (Human immunodeficiency virus 1, UniProt Q9YQ12). As to the kind of experiment: Inhibition of HIV1 protease. The class given is single protein.
For test [2], the system named is Human immunodeficiency virus 1. The test is described as follows: Antiviral activity against HIV-1 MDR/B infected in human PHA-PBM cells assessed as inhibition of p24 Gag protein production. It counts as functional, organism-based. Particulars: Human immunodeficiency virus 1, MDR/B, PBMC.
Test [3] has as its system Human immunodeficiency virus 1. As to the kind of experiment: Antiviral activity against HIV-1 MDR/TM infected in human PHA-PBM cells assessed as inhibition of p24 Gag protein production. It counts as functional, organism-based. Particulars: Human immunodeficiency virus 1, MDR/TM, PBMC.
For test [4], the system named is Human immunodeficiency virus 1. As to the kind of experiment: Antiviral activity against HIV-1 MDR/C infected in human PHA-PBM cells assessed as inhibition of p24 Gag protein production. Conditions: Human immunodeficiency virus 1, MDR/C, PBMC. The class given is functional, organism-based.
For test [5], the system named is Human immunodeficiency virus 1. The test is described as follows: Antiviral activity against HIV-1 MDR/G infected in human PHA-PBM cells assessed as inhibition of p24 Gag protein production. Particulars: Human immunodeficiency virus 1, MDR/G, PBMC. The class given is functional, organism-based.
In test [6] the test system is Human immunodeficiency virus 1. As to the kind of experiment: Antiviral activity against HIV-1 MDR/JSL infected in human PHA-PBM cells assessed as inhibition of p24 Gag protein production. The class given is functional, organism-based. Conditions: Human immunodeficiency virus 1, MDR/JSL, PBMC.
The test system of test [7] is Human immunodeficiency virus 1. The test is described as follows: Antiviral activity against wild type HIV-1 ERS104 pre infected in human PHA-PBM cells assessed as inhibition of p24 Gag protein production. The class given is functional, organism-based. Conditions: Human immunodeficiency virus 1, ERS104pre, PBMC.
For test [8], the system named is Human immunodeficiency virus 1. The test is described as follows: Antiviral activity against HIV-1 MDR/MM infected in human PHA-PBM cells assessed as inhibition of p24 Gag protein production. The class given is functional, organism-based. Particulars: Human immunodeficiency virus 1, MDR/MM, PBMC.

Sequence of Protease (Q9YQ12 whole entry): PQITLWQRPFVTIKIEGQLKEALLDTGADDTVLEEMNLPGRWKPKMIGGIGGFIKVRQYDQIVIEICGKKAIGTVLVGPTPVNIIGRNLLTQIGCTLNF

By IC50 is commonly meant the concentration needed to halve the response being measured. Consider `CC(C)(C)NC(=O)[C@@H]1C[C@@H]2CCCC[C@@H]2CN1C[C@@H](O)[C@H](Cc1ccccc1)NC(=O)[C@H](CC(N)=O)NC(=O)c1ccc2ccccc2n1`, for which, in test [1], the half-inhibitory concentration (IC50) turned out to be 15 nM.

As to `CC(C)CN(C[C@@H](O)[C@H](Cc1ccccc1)NC(=O)O[C@H]1CCOC1)S(=O)(=O)c1ccc(N)cc1`, the concentration for half-maximal inhibition (IC50) in test [1] came to 30 nM.

The Ki is a dissociation constant, usually derived from enzyme kinetics or from competition with a known ligand. For orientation: EC50 means the concentration at which the effect is half-maximal. With `COc1ccc(S(=O)(=O)N(CC(C)C)C[C@@H](O)[C@H](Cc2ccccc2)NC(=O)O[C@H]2CCO[C@H]3OCC[C@H]32)cc1`, the inhibitory constant (Ki) on Protease was 0.0027 nM. The concentration giving a half-maximal response (EC50) in test [2] came to 14.5 nM; in test [3], 27.5 nM; in [4] it was 3.7 nM; in test [5] it was 2.6 nM; in test [6] it was 27.5 nM; in [7], 1.9 nM. Also, the half-maximal effective concentration (EC50) in [8] was 5 nM. Moreover, the IC50 in test [1] came to 0.5 nM.

With `COc1ccc(S(=O)(=O)N(CC(C)C)C[C@@H](O)[C@H](Cc2ccccc2)NC(=O)O[C@@H]2CCO[C@@H]3OCC[C@@H]32)cc1`, affinity on Protease was put at a Ki of 0.068 nM. In addition, the half-inhibitory concentration (IC50) in test [1] stood at 19 nM.

Turning to `COc1ccc(S(=O)(=O)N(CC(C)C)C[C@@H](O)[C@H](Cc2ccccc2)NC(=O)O[C@H]2CCC[C@H]3OCC[C@@H]23)cc1`, the Ki at Protease is 0.005 nM. In addition, in test [1], the IC50 was found to be 8 nM.

On to `COc1ccc(S(=O)(=O)N(CC(C)C)C[C@@H](O)[C@H](Cc2ccccc2)NC(=O)O[C@H]2CCO[C@H]3CCC[C@H]32)cc1`, for which the inhibition constant (Ki) at Protease was 1.43 nM.

As to `COc1ccc(S(=O)(=O)N(CC(C)C)C[C@@H](O)[C@H](Cc2ccccc2)NC(=O)O[C@H]2CCC[C@H]3CCC[C@H]32)cc1`, on Protease, the affinity, expressed as Ki, was 9 nM. Also, in [1], the half-inhibitory concentration (IC50) is more than 1000 nM.

Compound `COc1ccc(S(=O)(=O)N(CC(C)C)C[C@@H](O)[C@H](Cc2ccccc2)NC(=O)O[C@H]2CCO[C@H]3COC[C@H]32)cc1` yielded a Ki on Protease of 5.3 nM. For the same compound, the half-maximal inhibitory concentration (IC50) in [1] was more than 1000 nM.

Compound `COc1ccc(S(=O)(=O)N(CC(C)C)C[C@@H](O)[C@H](Cc2ccccc2)NC(=O)O[C@H]2CO[C@H]3OCC[C@H]3C2)cc1` showed a Ki at Protease of 0.11 nM.

`CC(C)CN(C[C@@H](O)[C@H](Cc1ccccc1)NC(=O)O[C@H]1CCO[C@H]2OCC[C@H]21)S(=O)(=O)c1ccc(N)cc1` came in with a Ki on Protease of 0.01 nM. The IC50 in [1] stood at 6.5 nM.

As for `CC(C)CN(C[C@@H](O)[C@H](Cc1ccccc1)NC(=O)O[C@H]1CCO[C@H]2OCC[C@H]21)S(=O)(=O)c1ccc(CO)cc1`, the Ki on Protease is 0.085 nM. For the same compound, in test [1], the IC50 was 4.5 nM.

Regarding `COC(=O)N[C@H](C(=O)N[C@@H](Cc1ccccc1)[C@@H](O)CN(Cc1ccc(-c2ccccn2)cc1)NC(=O)[C@@H](NC(=O)OC)C(C)(C)C)C(C)(C)C` [ATAZANAVIR], the concentration for a half-maximal effect (EC50) in [2] was 470 nM; in test [3], 75 nM; in [4] it was 39 nM; in test [5], 19 nM; in test [6], 293 nM; in [7], 2.7 nM. Also, the EC50 in test [8] turned out to be 205 nM.

In the case of `Cc1cccc(C)c1OCC(=O)N[C@@H](Cc1ccccc1)[C@@H](O)C[C@H](Cc1ccccc1)NC(=O)[C@H](C(C)C)N1CCCNC1=O` [LOPINAVIR], the EC50 in [2] and in [6] was more than 1000 nM throughout.
